{"source": "patent US11026972B2", "about": "“Methods for generating macrophages with enhanced cancer phagocytosis” (Georgia State University Research Foundation, Inc., priority 2016, dated 2021)", "molecules": {"B1": {"name": "IL-1β: recombinant murine cytokine, PeproTech (protein, UniProt P10749 118-269, looked up)", "Interleukin-1 beta": "VPIRQLHYRLRDEQQKSLVLSDPYELKALHLNGQNINQQVIFSMSFVQGEPSNDKIPVALGLKGKNLYLSCVMKDGTPTLQLESVDPKQYPKKKMEKRFVFNKIEVKSKVEFESAEFPNWYISTSQAEHKPVFLGNNSGQDIIDFTMESVSS"}, "B2": {"name": "IFNγ: recombinant murine cytokine, PeproTech (protein, UniProt P01580 23-155, looked up)", "Interferon gamma": "HGTVIESLESLNNYFNSSGIDVEEKSLFLDIWRNWQKDGDMKILQSQIISFYLRLFEVLKDNQAISNNISVIESHLITTFFSNSKAKKDAFMSIAKFEVNNPQVQRQAFNELIRVVHQLLPESSLRKRKRSRC"}}, "key": {"PEMs": {"system": "PEMs", "test": "Cell signaling inhibitors on LPS/cytokine- or PMA-induced PEM phagocytic activation toward RBCs", "assay_type": "cell-based, mouse", "settings": "for LPS and cytokine-induced phagocytic activation: PEMs treated with LPS and cytokines in the presence of inhibitors", "protocol": "FIGS. 5A-5H include data related to our experiments on the role of Syk in phagocytic activation. […] PEMs were treated with LPS and cytokines in the presence of various inhibitors. After washing, inhibitor-free macrophages were tested for phagocytosis toward RBCs. […] PEMs treated with LPS and activating cytokines, or together with IL-10, were tested for total Syk and phosphorylated Syk (Syk^pY, specific at Y519/520). FIG. 5D describes PMA-induced macrophages phagocytosis toward RBCs. WT and SIRPα^−/− PEMs were treated with PMA (37° C., 30 min) before testing phagocytosis toward RBCs. FIG. 5E is a schematic depiction of PKC-Syk-mediated macrophage phagocytic activation toward self. […] Left: Inhibition of Syk by piceatannol and R406 prevented PMA-induced phagocytic activation. […] Error bars are ±SEM. ***P<0.001 vs. the respective controls. […] LPS-treated WT PEMs were further briefly treated with pervanadate before testing for phagocytosis toward RBCs. Error bars are ±SEM. ***P<0.001 vs. the respective controls. […] Data presented in each panel represent at least three independent experiments with n≥4, if applicable.\nEx vivo macrophage phagocytosis: Mouse spleens were harvested and minced in cold HBSS followed by passing through nylon meshes. The spleen cells in suspensions were collected by centrifugation followed by washing. After lysis of RBC, splenocytes were plated in cell culture dishes in DMEM with 10% FBS and cultured for 2 h followed by removal of non-adherent cells. The adherent cells, ˜70% being macrophages as determined by anti-F4/80 staining, were tested for phagocytosis. For phagocytosis of RBC or other tissue cells, targeted cells were labeled with CFSE prior to addition into the macrophage-containing wells. Macrophages and target cells, at a ratio of 1:5-10 for RBC or 1:1-2 for other cells, were co-incubated for 30 min at 37° C. followed by gently washing. Macrophage phagocytosis of target cells was then analyzed by fluorescence microscopy and/or by FACS. […] Alternatively, the freshly isolated splenocytes in suspension were incubated with CFSE-labeled RBC and other phagocytic targets for 30 min at 37° C. Macrophage phagocytosis was then determined by FACS after labeling macrophages with anti-F4/80. To test phagocytosis of apoptotic cells, B16 cells were irradiated by UV for 150 seconds at 50 J/m^2 strength. Apoptosis was analyzed at 2, 4, 6, 8 and 18 h post UV irradiation by labeling of the cells with anti-phosphatidylserine (PS) antibody (data not shown) or FITC-conjugated annexin V (data not shown). Cells that were confirmed to be apoptotic were trypsinized, labeled with CFSE, and then co-incubated with macrophages for 30 min at 37° C. After gentle washing, phagocytosis was analyzed by fluorescence microscopy and/or FACS. To test phagocytosis of bacteria and the fungal product zymosan, AlexaFluor-conjugated E.coli strain […] (2 μl suspension, ˜2 μg) or zymosan bioparticles (1 μl suspension, ˜2 μg) (both from Invitrogen) were incubated with macrophages for 30 min followed by washing and analyses. Similar procedures were performed to test phagocytosis of macrophages from various sources. To obtain peritoneal macrophages, peritonea of mice were lavaged by sterile PBS followed by centrifugation to collect cells. Cells suspended in DMEM with 10% FBS were then plated in cell culture dishes and incubated for 2 h at 37° C. followed by removal of non-adherent cells. To produce bone marrow-derived macrophages, freshly isolated bone marrow cells were culture in macrophage colony-stimulating factor (MCSF, ˜10 ng/ml)-containing MEM with 10% FBS for five-six days and macrophage differentiation was confirmed by anti-F4/80 staining."}, "[1]": {"system": "splenic macrophages, PEMs and BMDMs", "test": "Ex vivo macrophage phagocytosis toward RBCs and other self-cells after activation", "assay_type": "cell-based, mouse", "settings": "for ability to induce macrophage phagocytosis toward self: PEM, lack of the CD47-SIRPα-mediated inhibition", "protocol": "FIGS. 3A-3H include data related to our experiments assaying macrophage phagocytosis ex vivo. FIGS. 3A and 3B show macrophage phagocytosis of RBCs. Freshly isolated splenic macrophages (MØ) and peritoneal macrophages (PEM) and in vitro-derived BMDM (bone marrow-derived macrophages) were tested for phagocytosis toward CFSE-labeled Cd47^+ or Cd47^− RBCs. […] FIGS. 3F and 3G illustrate LPS and IL-17-activated PEM phagocytosis toward splenocytes (FIG. 3F), B16, and EL4 (FIG. 3G). Error bars are ±SEM. **P<0.01, ***P<0.001 vs. no treatment controls. […] PEM lavaged without (ctl.) or with Brewer thioglycollate (3%, i.p.) elicitation was tested. Error bars are ±SEM. ***P<0.001 vs. control PEM. Data presented in each panel represent at least three independent experiments with n≥4, if applicable.\nFIGS. 4A-4E include data related to our experiments on macrophage phagocytic plasticity. FIG. 4A is a panel of illustrative line graphs showing that IL-10 inhibits macrophage phagocytosis toward “self.” PEMs were treated with LPS and activating cytokines along with various concentrations of IL-10 before testing their ability to phagocytose RBCs. FIG. 4B illustrates the phagocytic plasticity of WT red pulp macrophages. […] Treatments of cultured macrophages with LPS and IL-17 re-elicited their phagocytosis toward RBCs. […] Error bars are ±SEM. ***P<0.001 vs. freshly isolated splenic macrophages. FIG. 4D includes microscopic images of RBC phagocytosis by LPS- and IL-17-treated splenic macrophages. […] WT PEMs treated with LPS or IL-17 were further treated with Cd47^+ RBCs or Cd47-AP (10 min, 37° C.) followed by cell lysis, SIRPα immunoprecipitation, and WB detection of SIRPα phosphorylation (SIRPα^pY) and SHP-1 association. Data presented in each panel represent at least three independent experiments with n≥4, if applicable.\nEx vivo macrophage phagocytosis: Mouse spleens were harvested and minced in cold HBSS followed by passing through nylon meshes. The spleen cells in suspensions were collected by centrifugation followed by washing. After lysis of RBC, splenocytes were plated in cell culture dishes in DMEM with 10% FBS and cultured for 2 h followed by removal of non-adherent cells. The adherent cells, ˜70% being macrophages as determined by anti-F4/80 staining, were tested for phagocytosis. For phagocytosis of RBC or other tissue cells, targeted cells were labeled with CFSE prior to addition into the macrophage-containing wells. Macrophages and target cells, at a ratio of 1:5-10 for RBC or 1:1-2 for other cells, were co-incubated for 30 min at 37° C. followed by gently washing. Macrophage phagocytosis of target cells was then analyzed by fluorescence microscopy and/or by FACS. To better recognize macrophages, macrophages in wells were labeled with an anti-F4/80 or an anti-CD11b antibody. Alternatively, the freshly isolated splenocytes in suspension were incubated with CFSE-labeled RBC and other phagocytic targets for 30 min at 37° C. Macrophage phagocytosis was then determined by FACS after labeling macrophages with anti-F4/80. To test phagocytosis of apoptotic cells, B16 cells were irradiated by UV for 150 seconds at 50 J/m^2 strength. Apoptosis was analyzed at 2, 4, 6, 8 and 18 h post UV irradiation by labeling of the cells with anti-phosphatidylserine (PS) antibody (data not shown) or FITC-conjugated annexin V (data not shown). Cells that were confirmed to be apoptotic were trypsinized, labeled with CFSE, and then co-incubated with macrophages for 30 min at 37° C. After gentle washing, phagocytosis was analyzed by fluorescence microscopy and/or FACS. To test phagocytosis of bacteria and the fungal product zymosan, AlexaFluor-conjugated E.coli strain […] (2 μl suspension, ˜2 μg) or zymosan bioparticles (1 μl suspension, ˜2 μg) (both from Invitrogen) were incubated with macrophages for 30 min followed by washing and analyses. Similar procedures were performed to test phagocytosis of macrophages from various sources. […]"}}, "data": [{"molecule": "O=C(O)CN(CCN(CC(=O)O)CC(=O)O)CC(=O)O", "note": "[EDTA]", "values": [{"measurement": "macrophage phagocytic activation", "setting": "PEMs; presence of EDTA", "value": "hindered macrophage phagocytic activation"}]}, {"molecule": "COc1cc2ncnc(Nc3ccc(O)cc3)c2cc1OC", "note": "[JAK3 inhibitor I]", "values": [{"measurement": "LPS and cytokine-induced phagocytic activation", "setting": "PEMs", "value": "diminished phagocytic activation induced by certain, but not all stimuli"}]}, {"molecule": "Cc1ccc(NCCCc2ccccc2)c(N)c1", "note": "[JSH-23]", "values": [{"measurement": "LPS and cytokine-induced phagocytic activation", "setting": "PEMs", "value": "diminished phagocytic activation induced by certain, but not all stimuli"}]}, {"molecule": "C/C(O)=C(\\C#N)C(=O)Nc1cc(Br)ccc1Br", "note": "[LFM-13]", "values": [{"measurement": "LPS and cytokine-induced phagocytic activation", "setting": "PEMs", "value": "diminished phagocytic activation induced by certain, but not all stimuli"}]}, {"molecule": "COc1cccc(-c2cc(=O)c3ccccc3o2)c1N", "note": "[PD98059]", "values": [{"measurement": "LPS and cytokine-induced phagocytic activation", "setting": "PEMs", "value": "diminished phagocytic activation induced by certain, but not all stimuli"}]}, {"molecule": "Cc1ccc(-c2nn(C(C)(C)C)c3ncnc(N)c23)cc1", "note": "[PP1]", "values": [{"measurement": "LPS and cytokine-induced phagocytic activation", "setting": "PEMs", "value": "diminished phagocytic activation induced by certain, but not all stimuli"}]}, {"molecule": "CC(C)(C)n1nc(-c2ccc(Cl)cc2)c2c(N)ncnc21", "note": "[PP2]", "values": [{"measurement": "LPS and cytokine-induced phagocytic activation", "setting": "PEMs", "value": "diminished phagocytic activation induced by certain, but not all stimuli"}]}, {"molecule": "COc1cc(Nc2ncc(F)c(Nc3ccc4c(n3)NC(=O)C(C)(C)O4)n2)cc(OC)c1OC", "note": "[R406]", "values": [{"measurement": "PEM activation", "setting": "PEMs; 400 nM, all stimuli", "value": "nearly completely eliminated PEM activation induced by all stimuli"}, {"measurement": "PMA-induced PEM phagocytosis", "setting": "PEMs; Syk inhibition", "value": "eliminated the PMA-induced PEM phagocytosis"}, {"measurement": "LPS-induced activation of PEM phagocytosis toward RBC", "setting": "PEMs; dose dependence", "value": "dose-dependently inhibited"}]}, {"molecule": "C[S+]([O-])c1ccc(-c2nc(-c3ccncc3)c(-c3ccc(F)cc3)[nH]2)cc1", "note": "(centres unmarked) [SB203580]", "values": [{"measurement": "LPS and cytokine-induced phagocytic activation", "setting": "PEMs", "value": "diminished phagocytic activation induced by certain, but not all stimuli"}]}, {"molecule": "COc1ccc2c(c1)CC[C@@H]1[C@@H]2CC[C@]2(C)[C@@H](NCCCCCCN3C(=O)C=CC3=O)CC[C@@H]12", "note": "[U73122]", "values": [{"measurement": "LPS and cytokine-induced phagocytic activation", "setting": "PEMs", "value": "diminished phagocytic activation induced by certain, but not all stimuli"}]}, {"molecule": "JAK inhibitor I", "values": [{"measurement": "LPS and cytokine-induced phagocytic activation", "setting": "PEMs", "value": "diminished phagocytic activation induced by certain, but not all stimuli"}]}, {"molecule": "pervanadate", "values": [{"measurement": "Cd47-dependent phagocytic recognition", "setting": "[1]; LPS-treated WT PEMs briefly treated with pervanadate", "value": "eliminates Cd47-dependent phagocytic recognition"}]}, {"molecule": "tumor necrosis factor-alpha [TNFα]", "values": [{"measurement": "ability to induce macrophage phagocytosis toward self", "setting": "[1]", "value": "have the ability to induce macrophage phagocytosis toward self"}]}, {"molecule": "B1", "values": [{"measurement": "ability to induce macrophage phagocytosis toward self", "setting": "[1]", "value": "have the ability to induce macrophage phagocytosis toward self"}]}, {"molecule": "B2", "values": [{"measurement": "ability to induce macrophage phagocytosis toward self", "setting": "[1]", "value": "not"}]}]}
